Measurements: PMC3593816 (Protein expression and purification, 2013)

Target: T1, Siglec5 (Homo sapiens, UniProt O15389, C36A)
T1 sequence (O15389 19-141 C36A): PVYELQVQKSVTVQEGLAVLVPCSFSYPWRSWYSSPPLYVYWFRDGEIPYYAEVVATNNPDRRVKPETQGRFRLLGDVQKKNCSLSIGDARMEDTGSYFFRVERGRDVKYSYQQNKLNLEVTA
Experiment: 2D 1H-15N HSQC NMR titration
Assay type: binding

| Kd [mM] | SMILES |
| --- | --- |
| > 100 | CC(=O)N[C@H]1[C@H]([C@H](O)[C@H](O)CO)OC(O)(C(=O)O)C[C@@H]1O (mixture of isomers) [sialic acid] |
| 31 ± 8 | CC(=O)N[C@H]1[C@H]([C@H](O)[C@H](O)CO)O[C@@](OC[C@H]2O[C@@H](O[C@H]3[C@H](O)[C@@H](O)C(O)O[C@@H]3CO)[C@H](O)[C@@H](O)[C@H]2O)(C(=O)O)C[C@@H]1O (some centres unmarked) [6′-sialyllactose] |
